Laboratory results from the NIST ThermoML archive (doi:10.1021/acs.jced.7b00507).
Numbers after ± are expanded uncertainties.

Experiment: mn = molality of the nth substance listed, in mol/kg
Details: 100 kPa, Liquid, Pycnometric method

| mass density (293.15 K, m1 = 0.6199) [kg/m3] | mass density (303.15 K, m1 = 0.8756) [kg/m3] | mass density (313.15 K, m1 = 1.222) [kg/m3] | mass density (323.15 K, m1 = 1.908) [kg/m3] | Compound | mass density (293.15 K, m1 = 3.129) [kg/m3] | mass density (303.15 K, m1 = 4.532) [kg/m3] | mass density (313.15 K, m1 = 6.615) [kg/m3] | mass density (323.15 K, m1 = 8.465) [kg/m3] |
| --- | --- | --- | --- | --- | --- | --- | --- | --- |
|  |  |  |  | O=[N+]([O-])[O-].[K+] [potassium nitrate] + O | 1167 ± 12 | 1217.1 ± 12 | 1269.4 ± 13 | 1321 ± 14 |
| 1060.4 ± 11 | 1081.6 ± 11 | 1111 ± 11 | 1156 ± 12 | [K+].[O]=[V](=[O])[O-] [potassium vanadate] + O |  |  |  |  |
